{"source": "patent US20160243136A1", "about": "“PHARMACEUTICAL FORMULATIONS CONTAINING MITOCHONDRIALLY TARGETED ANTIOXIDANTS” (Mitotech SA, priority 2013, published 2016)", "key": {"[1]": {"system": "Wistar rats with experimental hepatitis", "assay": "D-galactosamin-induced experimental hepatitis", "type": "in vivo, rat", "settings": "7 d before induction, control median 2", "protocol": "Experimental hepatitis was induced in 8-10 weeks old Wistar rats weighing […] by intraperitoneal injection of 500 mg/kg D-galactosamin in 0.9% NaCl. SkQ1 was administered by gavage in aqueous solution at doses of 10 nmol/kg/day, 50 nmol/kg/day, 250 nmol/kg/day, and 1250 nmol/kg/day starting 7 d before induction of hepatitis and ending at the day of induction. The animals were sacrificed 24 hrs after the induction of hepatitis. Inflammation score was estimated for each animal on a 3-point scale by blind examination of hematoxylin-eosin stained liver sections."}, "[2]": {"system": "Human endothelial cell line EA.hy926", "assay": "High-glucose endothelium damage, immunoblotting detection of VE-cadherin", "type": "cell-based", "settings": "2 nM and 20 nM SkQ1 pre-incubation 4 d; 45 mM D-glucose 2 d; vs vehicle control", "text": "Human endothelial cell line EA.hy926 (ATCC Collection; catalog number CRL-2922) was used as a model of the endothelium vessel damage occurring during inflammatory process and/or diabetes. This cell line is similar to primary HUVEC cell line (Edgell et al. (1983) PNAS, 80(12):3734-7; Edgell et al. (1990) In Vitro Cell Dev. Biol., 26(12):1167-72) and widely used as a relevant model for inflammation studies (Riesbeck et al. (1998) Clin. Vaccine Immunol., 5:5675-682).\nAccordingly, human endothelial cells EA.hy926 were pre-incubated with 2 nM and 20 nM of SkQ1 solution in Dulbecco's Modified Eagle's Medium (DMEM) supplemented with 10% of fetal serum (Example 1) for 4 d. Cells were then incubated 2 d with DMEM medium containing 1% FBS and 5 mM D-glucose. The cells were then incubated 2 d with 45 mM D-glucose and were then used for immunoblotting detection of VE-cadherin."}, "rat model of APN": {"system": "rat model of APN", "assay": "In vivo rat model of acute pyelonephritis (APN), bacteria introduced in the bladder", "settings": "7th day", "protocol": "An in vivo experimental model of APN was used where bacteria are introduced in the bladder of rat (Gupta et al. (1995) J. Med. Microbiol. 43:33-36). Experiments were performed on outbred white female rats (180-200 g) fed ad libitum. Animal protocols were approved by the Institutional Review Boards. Rats were anesthetized with chloral hydrate (300 mg/kg, intraperitoneally(ip)). The animals were infected intraurethrally using a soft Intramedic non-radio-opaque polyethylene catheter (Clay Adams, USA). The inoculum (5 ml per kg, 1×10^8 CFU/ml of rat fecal bacterial composition) was injected slowly to avoid any leakage […]. Control animals were untreated. The therapeutic protocol of SkQR1 used to treat this pathology was as follows: […], with subsequent injections of the same amount of SkQR1 at 12, 24, 36 and 48 hrs; in total, each animal received 500 nmol SkQR1 per kg. […]\nKidney mitochondria were isolated by homogenization and differential centrifugation in a medium containing 250 mM sucrose, 20 mM HEPES-KOH, 1 mM EGTA and 0.1% BSA, pH7.4. Total mitochondrial protein was determined using a bicinchoninic acid protein assay kit (Sigma-Aldrich, USA). The mitochondria from cultured kidney cells were isolated by the same protocol.\nThe ROS-sensitive fluorescent probe 2,7-DCF-DA (Molecular Probes, USA) dissolved in DMEM/F12 without bicarbonate (final concentration 10 μM) was added to renal cells (500 μl per well of 24-well plate, 2 ml per dish) and incubated for 15 min at 37° C. followed by a wash with DMEM/F12 without bicarbonate. MDA was determined as in (Mihara and Uchiyama (1978) Anal. Biochem. 86:271-8). Fluorescent probe, DAF-2-DA (Calbiochem, San Diego, Calif., USA) was used for NO determination in living cells. The procedure was the same as for 2,7-DCF-DA. The nitrite/nitrate concentration (as products of NO oxidation) in culture media was determined using Nitrite/Nitrate Assay Kit (Sigma-Aldrich, USA). TNFα was determined using the kit Rat TNFα ELISA Ready-SET-Go (Ebioscience, USA).\nThe kidney was isolated immediately after sacrificing the animal and perfused with ice-cold PBS. It was then fixed in a 10% neutral buffered formalin solution, embedded in paraffin and used for histopathological examination. Five micrometer thick sections were cut, deparaffinized, hydrated, and stained with hematoxylin and eosin. The renal sections were examined in blinded fashion for inflammation and infiltration by leukocytes in the kidneys of all treated animals. A minimum of 10 fields for each kidney slide were examined and scored for pathologic severity.\nThe manifestation of inflammatory indicators (i.e., a number of infiltrated leukocytes in every layer and the presence of abscesses) under APN was evaluated using the following scale: 0, none; 1, 5-50 leukocytes in the view field; […]; 4, abscesses with pus-necrotic content. The distribution of inflammatory changes (i.e., comparative analysis of infiltration and abscesses) was evaluated by the following criteria: 0, none in any layer; 1, infiltration in the medullar layer; 2, infiltration reaching the cortex.\nKidney homogenates for MPO determination were centrifuged at 20000 g 15 min, the pellets were resuspended in 50 mM K-phosphate buffer containing 0.5% CTAB. Resulted samples were frozen and thawed three times and then centrifuged at 10600 g 10 min. Supernatants were analyzed for MPO activity in chromogenic reaction with o-phenylenediamine (OPD). 100 μl sample was mixed with 100 μl substrate buffer (25 mM Na-citrate, 50 mM Na-phosphate, 0.45 mg/ml OPD, 0.1% H2O2, pH 5.0) and was incubated 15 min at room temperature and then OD was detected at 492 nm.\nSamples of kidney homogenates were loaded onto 15% Tris-glycine polyacrylamide gels (10-20 μg of total protein per lane). After electrophoresis, gels were blotted onto PVDF membranes (Amersham Pharmacia Biotech, UK). […]"}, "Human neutrophils": {"system": "Human neutrophils", "assay": "f-MLP-stimulated neutrophil MMP-9 release by zymography", "type": "cell-based", "settings": "0.2 nM, 2 nM, and 200 nM; 1.5 hr pre-incubation; 1 nM f-MLP 30 min; vs vehicle control", "protocol": "Human neutrophils were isolated from anticoagulated blood of healthy donors. Neutrophils were pre-incubated with 0.2 nM, 2 nM, 20 nM, 200 nM, and 500 nM SkQ1 solution in RPMI-1640 medium supplemented with 10% fetal serum for 1.5 hr at 37° C. in 5% CO2. The cells were then stimulated with 1 nM N-formyl-methionine-leucine-phenylalanine (f-MLP) for 30 min. The supernatants from the cells were used to detect MMP-9 activity by zymography analysis (MMP-9 release was used to estimate tissue damage). The data from this assay was shown as means at least for 3 separate experiments."}}, "data": [{"smiles": "CC1=C(C)C(=O)C(CCCCCCCCCC[P+](c2ccccc2)(c2ccccc2)c2ccccc2)=CC1=O", "note": "[SkQ1, 10-(6-plastoquinonyl)decyl-triphenylphosphonium]", "values": [{"measurement": "inflammation score (3-point scale, liver sections)", "setting": "[1]; 50 nmol/kg/day by gavage, p<0.01", "result": 1.5}, {"measurement": "inflammation score (median, 3-point scale, liver sections)", "setting": "[1]; 1250 nmol/kg/day by gavage, p<0.001", "result": 1}, {"measurement": "VE-cadherin downregulation induced by high glucose", "setting": "[2]", "result": "prevents"}, {"measurement": "leukocyte concentration in blood", "setting": "rat model of APN; SkQ1 100 nmol/kg ip on 3rd day", "result": "significantly reduced"}, {"measurement": "neutrophils concentration in blood", "setting": "rat model of APN; SkQ1 100 nmol/kg ip on 3rd day after induction, vs animals not receiving SkQ1", "result": "twice as low"}, {"measurement": "MPO activity in renal tissue (inflammation of kidney tissue)", "setting": "rat model of APN; SkQ1 ip on third day after induction", "result": "significant suppression"}, {"measurement": "neutrophil-MMP-9 activation induced by f-MLP", "setting": "Human neutrophils", "result": "prevented"}]}]}
